Key:
A-549 = assay: cells; conditions: Homo sapiens, A549, 48 h; for GI50: read-out: A549 GI50; for CC50: read-out: A549 LC50; for IC (TGI): read-out: A549 TGI
Procedure, shortened: (§1)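 Colorimetric SRB read (490 nm) on triplicate wells after 48 h at 37 °C, 5% CO2. Dose range 10 to 10^−8 μg/ml; 5×10^3 cells/well pre-attached 18 h.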

HT-29 = assay: cells; conditions: Homo sapiens, HT-29, 48 h; for GI50: read-out: HT29 GI50; for CC50: read-out: HT29 LC50; for IC (TGI): read-out: HT29 TGI
Procedure, shortened: as §1

LoVo = assay: cells; conditions: Homo sapiens, LoVo, 48 h; for GI50: read-out: LOVO GI50; for CC50: read-out: LOVO LC50; for IC (TGI): read-out: LOVO TGI
Procedure, shortened: as §1

DU-145 = assay: Inhibition of cells growth by colorimetric assay (SRB); conditions: Homo sapiens, DU-145, 48 h; for GI50: read-out: DU145 GI50; for CC50: read-out: DU145 LC50; for IC (TGI): read-out: DU145 TGI
Procedure, shortened: as §1

HeLa-APL = assay: as above; conditions: Homo sapiens, 48 h; for GI50: read-out: HELA-APL GI50; for CC50: read-out: HELA-APL LC50; for IC (TGI): read-out: HELA-APL TGI
Procedure, shortened: as §1

HeLa = assay: as above; conditions: Homo sapiens, HeLa, 48 h; for GI50: read-out: HELA GI50; for CC50: read-out: HELA LC50; for IC (TGI): read-out: HELA TGI
Procedure, shortened: as §1

IGROV-1 = assay: as above; conditions: Homo sapiens, IGROV-1, 48 h; for GI50: read-out: IGROV GI50; for CC50: read-out: IGROV LC50; for IC (TGI): read-out: IGROV TGI
Procedure, shortened: as §1

IGROV-ET = assay: as above; conditions: Homo sapiens, 48 h; for GI50: read-out: IGROV-ET GI50; for CC50: read-out: IGROV-ET LC50; for IC (TGI): read-out: IGROV-ET TGI
Procedure, shortened: as §1

K-562 = assay: as above; conditions: Homo sapiens, K562, 48 h; for GI50: read-out: K562 GI50; for CC50: read-out: K562 LC50; for IC (TGI): read-out: K562 TGI
Procedure, shortened: as §1

LNCaP = assay: as above; conditions: Homo sapiens, LNCaP, 48 h; for GI50: read-out: LNCAP GI50; for CC50: read-out: LNCAP LC50; for IC (TGI): read-out: LNCAP TGI
Procedure, shortened: as §1

LoVo-Dox = assay: as above; conditions: Homo sapiens, 48 h; for GI50: read-out: LOVO-DOX GI50; for CC50: read-out: LOVO-DOX LC50; for IC (TGI): read-out: LOVO-DOX TGI
Procedure, shortened: as §1

PANC-1 = assay: as above; conditions: Homo sapiens, PANC-1, 48 h; for GI50: read-out: PANC-1 GI50; for CC50: read-out: PANC-1 LC50; for IC (TGI): read-out: PANC-1 TGI
Procedure, shortened: as §1

SK-BR-3 = assay: as above; conditions: Homo sapiens, SK-BR-3, 48 h; for GI50: read-out: SK-BR3 GI50; for CC50: read-out: SK-BR3 LC50; for IC (TGI): read-out: SK-BR3 TGI
Procedure, shortened: as §1

SK-MEL-28 = assay: as above; conditions: Homo sapiens, SK-MEL-28, 48 h; for GI50: read-out: MEL-28 GI50; for CC50: read-out: MEL-28 LC50; for IC (TGI): read-out: MEL-28 TGI
Procedure, shortened: as §1

## COc1c(C)cc2c(c1O)[C@H]1N[C@@H](C2)[C@H](O)N2C1[C@@H]1SC[C@]3(NCCc4c3[nH]c3ccc(C)cc43)C(=O)OC[C@H]2c2c3c(c(C)c(OC(C)=O)c21)OCO3 (stereo partly drawn) [compound 66]
A-549
  GI50: 0.00762 µM
  CC50: 0.874 µM
  IC (TGI): 0.0397 µM
HT-29
  GI50: 0.00586 µM
  CC50: 13.2 µM
  IC (TGI): 0.181 µM
LoVo
  GI50: 0.00527 µM
  CC50: 4.35 µM
  IC (TGI): 0.0209 µM
DU-145
  GI50: 0.00339 µM
  CC50: 3.86 µM
  IC (TGI): 0.0016 µM
HeLa-APL
  GI50: 0.00305 µM
  CC50: 0.0127 µM
  IC (TGI): 0.00624 µM
HeLa
  GI50: 0.00241 µM
  CC50: 0.00907 µM
  IC (TGI): 0.00468 µM
IGROV-1
  GI50: 0.00299 µM
  CC50: 0.16 µM
  IC (TGI): 0.00676 µM
IGROV-ET
  GI50: 0.0383 µM
  CC50: 5.59 µM
  IC (TGI): 0.179 µM
K-562
  GI50: 0.00433 µM
  CC50: 0.484 µM
  IC (TGI): 0.0125 µM
LNCaP
  GI50: 0.00199 µM
  CC50: 0.00739 µM
  IC (TGI): 0.00383 µM
LoVo-Dox
  GI50: 0.37 µM
  CC50: 13.2 µM
  IC (TGI): 1.89 µM
PANC-1
  GI50: 0.00457 µM
  CC50: 6.4 µM
  IC (TGI): 0.0234 µM
SK-BR-3
  GI50: 0.0065 µM
  CC50: 13.2 µM
  IC (TGI): 0.331 µM
SK-MEL-28
  GI50: 0.00534 µM
  CC50: 0.0745 µM
  IC (TGI): 0.0189 µM

## C=CCN1[C@@H]2c3c(cc(C)c(OC)c3O)C[C@H]1[C@H](O)N1C2[C@@H]2SC[C@]3(NCCc4cc(O)c(OC)cc43)C(=O)OC[C@H]1c1c3c(c(C)c(OC(C)=O)c12)OCO3 (stereo partly drawn) [compound 67]
A-549
  GI50: 0.0327 µM
  CC50: 0.797 µM
  IC (TGI): 0.0687 µM
HT-29
  GI50: 0.0379 µM
  CC50: 11.9 µM
  IC (TGI): 0.102 µM
LoVo
  GI50: 0.0286 µM
  CC50: 10.6 µM
  IC (TGI): 0.073 µM
DU-145
  GI50: 0.0359 µM
  CC50: 3.5 µM
  IC (TGI): 0.0754 µM
HeLa-APL
  GI50: 0.0297 µM
  CC50: 0.327 µM
  IC (TGI): 0.0647 µM
HeLa
  GI50: 0.0302 µM
  CC50: 0.395 µM
  IC (TGI): 0.0674 µM
IGROV-1
  GI50: 0.0312 µM
  CC50: 0.685 µM
  IC (TGI): 0.0786 µM
IGROV-ET
  GI50: 0.0268 µM
  CC50: 2.68 µM
  IC (TGI): 0.0627 µM
K-562
  GI50: 0.0339 µM
  CC50: 2.09 µM
  IC (TGI): 0.0397 µM
LNCaP
  GI50: 0.003 µM
  CC50: 0.0374 µM
  IC (TGI): 0.009 µM
LoVo-Dox
  GI50: 0.368 µM
  CC50: 12.7 µM
  IC (TGI): 0.975 µM
PANC-1
  GI50: 0.0274 µM
  CC50: 2.78 µM
  IC (TGI): 0.0927 µM
SK-BR-3
  GI50: 0.00871 µM
  CC50: 0.284 µM
  IC (TGI): 0.0374 µM
SK-MEL-28
  GI50: 0.0204 µM
  CC50: 0.1 µM
  IC (TGI): 0.0453 µM

From patent publication US7767659B2, “Synthesis of naturally occurring ecteinascidins and related compounds” (Pharma Mar, S.A., priority 2002, dated 2010)
